Results reported in patent US20230265151A1, “GIP/GLP1 CO-AGONIST COMPOUNDS” (priority 2020, published 2023).
Like-named read-outs stand apart in the source and are kept apart here.

Assays:
Assay type in all cases: cell-based
[1] = biological target: T1, hGIPR (Homo sapiens, UniProt P48546); assay: Functional cAMP formation (HTRF) in HEK-293 clonal cells expressing hGIPR, 0.1% bovine casein, without or with 1.0% human serum albumin; conditions: for EC50: geometric mean
T1 construct: expressed in transfected cells
T1 sequence (P48546 22-466): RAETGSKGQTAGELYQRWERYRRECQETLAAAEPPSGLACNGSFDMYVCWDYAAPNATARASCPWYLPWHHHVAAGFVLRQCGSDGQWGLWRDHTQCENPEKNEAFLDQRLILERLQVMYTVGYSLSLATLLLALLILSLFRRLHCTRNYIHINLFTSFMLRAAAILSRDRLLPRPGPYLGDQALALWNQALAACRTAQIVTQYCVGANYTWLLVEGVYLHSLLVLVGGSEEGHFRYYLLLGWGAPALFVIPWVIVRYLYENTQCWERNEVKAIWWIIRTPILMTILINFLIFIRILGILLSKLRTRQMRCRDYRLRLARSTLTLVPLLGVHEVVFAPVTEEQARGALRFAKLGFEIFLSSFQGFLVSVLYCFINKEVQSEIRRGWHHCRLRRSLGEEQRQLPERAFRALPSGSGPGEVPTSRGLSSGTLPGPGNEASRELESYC
How it was run: (§1)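 Cells were stimulated with peptide for 30 min at 37° C, then lysed in buffer carrying cAMP-d2 and anti-cAMP Eu3+-cryptate for a competitive HTRF read after at least 60 min at room temperature. The 665/620 nm ratio was converted to nM cAMP against a standard curve.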

[2] = biological target: hGLP-1R (Homo sapiens, UniProt P43220); assay: Functional cAMP formation (HTRF) in HEK-293 clonal cells expressing hGLP-1R, 0.1% bovine casein, without or with 1.0% human serum albumin; set-up: expressed in transfected cells; conditions: for EC50: geometric mean; for Emax: percent of maximal response to GLP-1(7-36)NH2
How it was run: as §1

[3] = biological target: T2, hGCGR (Homo sapiens, UniProt P47871); assay: Functional cAMP formation (HTRF) in HEK-293 clonal cells expressing hGCGR, 0.1% bovine casein, without or with 1.0% human serum albumin; conditions: geometric mean
T2 construct: expressed in transfected cells
How it was run: as §1

[4] = 0.1% bovine casein and 1.0% human serum albumin, 37° C., read-out: hGIPR EC50, nM (SEM, n)
[5] = HEK293, percent of maximal response to GIP(1-42)NH2, 37° C., 0.1% bovine casein, arithmetic mean, read-out: hGIPR Emax, % ± SEM
[6] = 0.1% bovine casein and 1.0% human serum albumin, 37° C., read-out: hGLP-1R EC50, nM (SEM, n)
[7] = HEK293, 0.1% bovine casein and 1.0% human serum albumin, 37° C., read-out: hGLP-1R Emax, % ± SEM
[8] = cAMP, incubated at 37° C., 0.1% bovine casein (no human serum albumin), read-out: hGLP-1R EC50, nM (SEM, n)
[9] = 0.1% bovine casein and 1.0% human serum albumin, 37° C., read-out: hGCGR EC50, nM (SEM, n)
[10] = cAMP, incubated at 37° C., 0.1% bovine casein (no human serum albumin), read-out: hGCGR EC50, nM (SEM, n)
[11] = HEK293, 0.1% bovine casein and 1.0% human serum albumin, 37° C., percent of maximal response to GIP(1-42)NH2, read-out: hGIPR Emax, % ± SEM
[12] = cAMP, incubated at 37° C., 0.1% bovine casein (no human serum albumin), read-out: hGIPR EC50, nM (SEM, n)

T2 sequence (P47871 26-477): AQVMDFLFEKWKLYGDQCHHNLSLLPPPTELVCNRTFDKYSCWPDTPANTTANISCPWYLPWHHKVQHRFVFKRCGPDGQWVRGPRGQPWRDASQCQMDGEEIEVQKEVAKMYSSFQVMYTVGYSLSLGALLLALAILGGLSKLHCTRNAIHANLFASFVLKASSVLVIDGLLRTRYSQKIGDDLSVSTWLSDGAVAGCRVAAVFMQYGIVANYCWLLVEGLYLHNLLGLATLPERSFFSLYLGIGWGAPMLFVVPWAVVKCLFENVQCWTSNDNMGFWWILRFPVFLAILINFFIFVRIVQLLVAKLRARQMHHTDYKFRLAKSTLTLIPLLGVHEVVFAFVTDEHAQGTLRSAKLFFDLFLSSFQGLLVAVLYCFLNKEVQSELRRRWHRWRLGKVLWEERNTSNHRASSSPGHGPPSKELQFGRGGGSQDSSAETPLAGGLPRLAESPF
hGLP-1R, sequence (P43220 24-463): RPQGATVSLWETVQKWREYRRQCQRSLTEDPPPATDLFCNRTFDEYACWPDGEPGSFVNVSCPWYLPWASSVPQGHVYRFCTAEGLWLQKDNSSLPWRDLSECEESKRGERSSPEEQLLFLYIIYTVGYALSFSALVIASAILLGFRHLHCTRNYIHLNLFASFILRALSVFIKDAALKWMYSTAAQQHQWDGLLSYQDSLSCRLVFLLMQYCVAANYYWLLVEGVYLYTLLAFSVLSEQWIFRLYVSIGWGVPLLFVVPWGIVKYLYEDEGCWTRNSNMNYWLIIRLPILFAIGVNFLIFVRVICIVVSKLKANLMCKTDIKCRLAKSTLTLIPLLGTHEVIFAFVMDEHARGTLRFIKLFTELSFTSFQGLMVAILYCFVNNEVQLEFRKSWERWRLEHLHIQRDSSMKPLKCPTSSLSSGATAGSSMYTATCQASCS

With `CC[C@H](C)[C@H](NC(=O)[C@H](CCCN)NC(=O)[C@H](CC(=O)O)NC(=O)[C@H](CC(C)C)NC(=O)[C@](C)(CC(C)C)NC(=O)[C@@H](NC(=O)[C@H](CO)NC(=O)[C@H](Cc1ccncc1)NC(=O)[C@H](CC(=O)O)NC(=O)[C@H](CO)NC(=O)[C@@H](NC(=O)[C@](C)(Cc1ccccc1F)NC(=O)[C@@H](NC(=O)CNC(=O)[C@H](CCC(=O)O)NC(=O)C(C)(C)NC(=O)[C@@H](N)Cc1ccc(O)cc1)[C@@H](C)O)[C@@H](C)O)[C@@H](C)CC)C(=O)N[C@@H](C)C(=O)N[C@@H](CCC(N)=O)C(=O)NC(C)(C)C(=O)N[C@@H](CCC(=O)O)C(=O)N[C@@H](Cc1ccccc1)C(=O)N[C@H](C(=O)N[C@@H](CCCCNC(=O)COCCOCCNC(=O)COCCOCCNC(=O)CC[C@H](NC(=O)CCCCCCCCCCCCC(=O)O)C(=O)O)C(=O)N[C@@](C)(Cc1ccc(O)cc1)C(=O)N[C@@H](CC(C)C)C(=O)N[C@H](C(=O)N[C@@H](CCC(=O)O)C(=O)NCC(=O)NCC(=O)N[C@@H](CCCCNC(=O)COCCOCCNC(=O)COCCOCCNC(=O)CC[C@H](NC(=O)CCCCCCCCCCCCC(=O)O)C(=O)O)C(=O)N[C@@H](CO)C(=O)N[C@@H](CO)C(=O)NCC(=O)N[C@@H](C)C(=O)N1CCC[C@H]1C(=O)N1CCC[C@H]1C(=O)N1CCC[C@H]1C(=O)N[C@@H](CO)C(N)=O)[C@@H](C)CC)[C@@H](C)CC` [Example 71] the EC50 [1, 4] was 3.07 nM, the Emax [1, 5] was 93.8 ± 3.59% and the EC50 [2, 6] was 43.7 nM. It also gave an Emax [2, 7] of 100%, an EC50 [2, 8] of 0.246 nM and an EC50 [3, 9] greater than 9950 nM. The EC50 [3, 10] was greater than 9950 nM.
With `CC[C@H](C)[C@H](NC(=O)[C@H](CCCN)NC(=O)[C@H](CC(=O)O)NC(=O)[C@H](CC(C)C)NC(=O)[C@](C)(CC(C)C)NC(=O)[C@@H](NC(=O)[C@H](CO)NC(=O)[C@H](Cc1ccncc1)NC(=O)[C@H](CC(=O)O)NC(=O)[C@H](CO)NC(=O)[C@@H](NC(=O)[C@](C)(Cc1ccccc1F)NC(=O)[C@@H](NC(=O)CNC(=O)[C@H](CCC(=O)O)NC(=O)C(C)(C)NC(=O)[C@@H](N)Cc1ccc(O)cc1)[C@@H](C)O)[C@@H](C)O)[C@@H](C)CC)C(=O)N[C@@H](C)C(=O)N[C@@H](CCC(N)=O)C(=O)NC(C)(C)C(=O)N[C@@H](CCC(=O)O)C(=O)N[C@@H](Cc1ccccc1)C(=O)N[C@H](C(=O)N[C@@H](CCCCNC(=O)COCCOCCNC(=O)COCCOCCNC(=O)CC[C@H](NC(=O)CCCCCCCCCCCCC(=O)O)C(=O)O)C(=O)N[C@@](C)(Cc1ccc(O)cc1)C(=O)N[C@@H](CC(C)C)C(=O)N[C@H](C(=O)N[C@@H](CCC(=O)O)C(=O)NCC(=O)NCC(=O)N1CCC[C@H]1C(=O)N[C@@H](CO)C(=O)N[C@@H](CO)C(=O)NCC(=O)N[C@@H](C)C(=O)N1CCC[C@H]1C(=O)N1CCC[C@H]1C(=O)N1CCC[C@H]1C(=O)N[C@@H](CO)C(=O)N[C@@H](CCCCNC(=O)COCCOCCNC(=O)COCCOCCNC(=O)CC[C@H](NC(=O)CCCCCCCCCCCCC(=O)O)C(=O)O)C(N)=O)[C@@H](C)CC)[C@@H](C)CC` [Example 72] the Emax ([1]; HEK293, read-out: hGIPR Emax, % ± SEM, 0.1% bovine casein and 1.0% human serum albumin, 37° C., percent of maximal response to GIP(1-42)NH2) was 95.9%, the Emax ([1]; HEK293, read-out: hGIPR Emax, % ± SEM, percent of maximal response to GIP(1-42)NH2, 37° C., 0.1% bovine casein, arithmetic mean) was 96.5 ± 3.71% and the EC50 ([1]; hGIPR EC50, nM (SEM, n), 0.1% bovine casein and 1.0% human serum albumin, 37° C.) was 3.55 nM. For the same molecule, the Emax ([2]; HEK293, read-out: hGLP-1R Emax, % ± SEM, 0.1% bovine casein and 1.0% human serum albumin, 37° C.) was 98.8%, the EC50 ([2]; hGLP-1R EC50, nM (SEM, n), 0.1% bovine casein and 1.0% human serum albumin, 37° C.) was 40.1 nM and the EC50 ([2]; hGLP-1R EC50, nM (SEM, n), cAMP, incubated at 37° C., 0.1% bovine casein (no human serum albumin)) was 0.245 nM. For the same molecule, the EC50 ([3]; hGCGR EC50, nM (SEM, n), 0.1% bovine casein and 1.0% human serum albumin, 37° C.) was greater than 9950 nM and the EC50 ([3]; hGCGR EC50, nM (SEM, n), cAMP, incubated at 37° C., 0.1% bovine casein (no human serum albumin)) was greater than 9950 nM.
`CC[C@H](C)[C@H](NC(=O)[C@H](CCCN)NC(=O)[C@H](CC(=O)O)NC(=O)[C@H](CC(C)C)NC(=O)[C@](C)(CC(C)C)NC(=O)[C@@H](NC(=O)[C@H](CO)NC(=O)[C@H](Cc1ccncc1)NC(=O)[C@H](CC(=O)O)NC(=O)[C@H](CO)NC(=O)[C@@H](NC(=O)[C@](C)(Cc1ccccc1F)NC(=O)[C@@H](NC(=O)CNC(=O)[C@H](CCC(=O)O)NC(=O)C(C)(C)NC(=O)[C@@H](N)Cc1ccc(O)cc1)[C@@H](C)O)[C@@H](C)O)[C@@H](C)CC)C(=O)N[C@@H](C)C(=O)N[C@@H](CCC(N)=O)C(=O)NC(C)(C)C(=O)N[C@@H](CCCCNC(=O)COCCOCCNC(=O)COCCOCCNC(=O)CC[C@H](NC(=O)CCCCCCCCCCCCC(=O)O)C(=O)O)C(=O)N[C@@H](Cc1ccccc1)C(=O)N[C@H](C(=O)N[C@H](CCC(=O)O)C(=O)N[C@@](C)(Cc1ccc(O)cc1)C(=O)N[C@@H](CC(C)C)C(=O)N[C@H](C(=O)N[C@@H](CCC(=O)O)C(=O)NCC(=O)NCC(=O)N[C@@H](CCCCNC(=O)COCCOCCNC(=O)COCCOCCNC(=O)CC[C@H](NC(=O)CCCCCCCCCCCCC(=O)O)C(=O)O)C(=O)N[C@@H](CO)C(=O)N[C@@H](CO)C(=O)NCC(=O)N[C@@H](C)C(=O)N1CCC[C@H]1C(=O)N1CCC[C@H]1C(=O)N1CCC[C@H]1C(=O)N[C@@H](CO)C(N)=O)[C@@H](C)CC)[C@@H](C)CC` [Example 74] gave an EC50 [1, 4] of 2.19 nM, an Emax [1, 11] of 86.7% and an Emax [1, 5] of 93.3 ± 2.89%. It also gave an EC50 [1, 12] of 0.0156 nM, an EC50 [2, 6] of 59.5 nM and an EC50 [2, 8] of 0.334 nM. The EC50 [3, 9] was greater than 9950 nM and the EC50 [3, 10] was greater than 9950 nM.
`CC[C@H](C)[C@H](NC(=O)[C@H](CCCN)NC(=O)[C@H](CC(=O)O)NC(=O)[C@H](CC(C)C)NC(=O)[C@](C)(CC(C)C)NC(=O)[C@@H](NC(=O)[C@H](CO)NC(=O)[C@H](Cc1ccncc1)NC(=O)[C@H](CC(=O)O)NC(=O)[C@H](CO)NC(=O)[C@@H](NC(=O)[C@](C)(Cc1ccccc1F)NC(=O)[C@@H](NC(=O)CNC(=O)[C@H](CCC(=O)O)NC(=O)C(C)(C)NC(=O)[C@@H](N)Cc1ccc(O)cc1)[C@@H](C)O)[C@@H](C)O)[C@@H](C)CC)C(=O)N[C@@H](C)C(=O)N[C@@H](CCC(N)=O)C(=O)NC(C)(C)C(=O)N[C@@H](CCCCNC(=O)COCCOCCNC(=O)COCCOCCNC(=O)CC[C@H](NC(=O)CCCCCCCCCCCCC(=O)O)C(=O)O)C(=O)N[C@@H](Cc1ccccc1)C(=O)N[C@H](C(=O)N[C@H](CCC(=O)O)C(=O)N[C@@](C)(Cc1ccc(O)cc1)C(=O)N[C@@H](CC(C)C)C(=O)N[C@H](C(=O)N[C@@H](CCC(=O)O)C(=O)NCC(=O)NCC(=O)N1CCC[C@H]1C(=O)N[C@@H](CO)C(=O)N[C@@H](CO)C(=O)NCC(=O)N[C@@H](C)C(=O)N1CCC[C@H]1C(=O)N1CCC[C@H]1C(=O)N1CCC[C@H]1C(=O)N[C@@H](CO)C(=O)N[C@@H](CCCCNC(=O)COCCOCCNC(=O)COCCOCCNC(=O)CC[C@H](NC(=O)CCCCCCCCCCCCC(=O)O)C(=O)O)C(N)=O)[C@@H](C)CC)[C@@H](C)CC` [Example 75] gave an EC50 [1, 4] of 2.18 nM, an Emax [1, 11] of 87.8 ± 3.33% and an Emax [1, 5] of 92.3 ± 0.78%. It also gave an EC50 [1, 12] of 0.0182 nM, an EC50 [2, 6] of 41.3 nM and an Emax [2, 7] of 97 ± 8.3%. For the same molecule, the EC50 [2, 8] was 0.411 nM, the EC50 [3, 9] was greater than 9950 nM and the EC50 [3, 10] was greater than 9950 nM.
